Broadly, the TGI is the concentration at which net growth stops. Low values mean more potent growth arrest, high ones less potent growth arrest.

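Compound exposure: 48 hours, 5 concentrations, 96-well plates. TGI is the concentration that stops growth completely.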 Bounds are passed on as bounds.

Our source for the TGI values is PubChem BioAssay (NCI).

Some test systems named below: NCI-H522 lung; SK-OV-3 ovarian; MDA-N; EKVX NSCLC; OVCAR-3 ovarian; KM12 colon; MCF7 breast; NCI-H226 lung.
Holding throughout (experiment): DTP human tumour cell line panel, 48 h

As for `COc1ccccc1-n1c(=O)n(C)c(=O)n1C(C)(C)C`, the TGI with NCI-H522 lung, with SK-OV-3 ovarian, with MDA-N, in the assay on EKVX NSCLC, in the assay on OVCAR-3 ovarian and with KM12 colon was above 100 µM each time. The total growth inhibition concentration (TGI) with MCF7 breast and with NCI-H226 lung was above 100 µM in each case.

In the case of `COC(=O)C1=C(OC(=O)/C(=C/c2ccccc2)c2ccc(OC)cc2)C(C(=O)OC)[C@@]2(O)[C@@H](C(=O)OC)[C@H](C)C[C@@H]1[C@@H]2C(=O)OC` (stereo partly drawn), the TGI with NCI-H522 lung, with SK-OV-3 ovarian, with MDA-N, with EKVX NSCLC, in the assay on OVCAR-3 ovarian and in the assay with KM12 colon was above 100 µM each time. The total growth inhibition concentration (TGI) with MCF7 breast and in the assay on NCI-H226 lung was above 100 µM each time.

Regarding `Cc1ccc(S(=O)(=O)N2C[C@@H]3CC[C@]4(CO[Si](C)(C)C(C)(C)C)N[C@@H](c5ccccc5)[C@H]2[C@H]34)cc1`, the TGI in the assay with NCI-H522 lung, in the assay with SK-OV-3 ovarian, in the assay on MDA-N, in the assay with EKVX NSCLC, in the assay on OVCAR-3 ovarian and in the assay with KM12 colon was above 100 µM in each case. The TGI is above 100 µM in the assay with MCF7 breast and 57.1 µM in the assay with NCI-H226 lung.

As for `COC(=O)[C@@H]1CS(=O)(=O)C(C(C)C)N1C(C)=O` (stereo partly drawn), the TGI with NCI-H522 lung, in the assay on SK-OV-3 ovarian, with MDA-N, in the assay on EKVX NSCLC, in the assay with OVCAR-3 ovarian and in the assay on KM12 colon was above 100 µM throughout. Besides, the total growth inhibition concentration (TGI) in the assay on MCF7 breast and in the assay on NCI-H226 lung was above 100 µM in each case.

As to `CC[C@@]1(O)C(=O)OCc2c1cc1n(c2=O)Cc2c-1nc1ccc(O)cc1c2[Si](C)(C)C(C)(C)C`, the TGI was 0.135 µM in the assay on NCI-H522 lung; above 53 µM in the assay on SK-OV-3 ovarian; 4.63 µM with MDA-N; 15.8 µM in the assay on EKVX NSCLC; 0.0752 µM in the assay on OVCAR-3 ovarian; 0.131 µM with KM12 colon. Further, the concentration for total growth inhibition (TGI) was above 41.2 µM in the assay on MCF7 breast and 0.015 µM in the assay with NCI-H226 lung.

With `NS(=O)(=O)c1nc(S(=O)(=O)O)c2[nH]cnc2n1`, the TGI with NCI-H522 lung, with SK-OV-3 ovarian, in the assay on MDA-N, in the assay on EKVX NSCLC, with OVCAR-3 ovarian and in the assay with KM12 colon was above 100 µM in each case. Moreover, the TGI in the assay with MCF7 breast and in the assay with NCI-H226 lung was above 100 µM in each case.

For the molecule `O=C(O)CSc1ccccc1C(=O)O`, the TGI in the assay on NCI-H522 lung, in the assay on SK-OV-3 ovarian, in the assay on MDA-N, in the assay on EKVX NSCLC, with OVCAR-3 ovarian and with KM12 colon was above 100 µM each time. Also, the TGI in the assay with MCF7 breast and in the assay on NCI-H226 lung was above 100 µM throughout.

Regarding `O=c1[nH]nc(-c2ccccc2)n1/N=C/c1ccc([N+](=O)[O-])o1`, the TGI in the assay with NCI-H522 lung was determined as 6.83 µM; in the assay on SK-OV-3 ovarian, 65.6 µM; with MDA-N, 12 µM; with EKVX NSCLC it was 24 µM; with OVCAR-3 ovarian it was 15.5 µM; with KM12 colon it was 23.2 µM. Also, the results for the total growth inhibition concentration (TGI) with MCF7 breast and with NCI-H226 lung were 7.21 µM and 37.5 µM, respectively.

As for `NNC(=O)Nc1nc2ccc(NN)cc2[nH]1`, the TGI is 92.6 µM in the assay with NCI-H522 lung; above 100 µM in the assay on SK-OV-3 ovarian; above 100 µM with MDA-N; above 100 µM with EKVX NSCLC; above 100 µM in the assay with OVCAR-3 ovarian; 48.7 µM in the assay on KM12 colon. Besides, the TGI in the assay on MCF7 breast came to 82.5 µM; in the assay with NCI-H226 lung, 89.8 µM.

Regarding `Cc1cccc2c(N)c3cccc(C(=O)NCC[N+](C)(C)Cc4ccc([N+](=O)[O-])s4)c3nc12`, the TGI in the assay with NCI-H522 lung is 28.2 µM; in the assay with SK-OV-3 ovarian, above 75.9 µM; with MDA-N, 49.9 µM; in the assay with EKVX NSCLC, 41.5 µM; in the assay with OVCAR-3 ovarian, 49.6 µM; in the assay with KM12 colon, above 54.3 µM. Further, the results for the TGI with MCF7 breast and in the assay with NCI-H226 lung were above 51.9 µM and 21.9 µM, respectively.

Turning to `CCCCc1ccc(Nc2ncc3ncn(COCCO)c3n2)cc1`, the TGI in the assay on NCI-H522 lung was above 100 µM; in the assay on SK-OV-3 ovarian, above 100 µM; in the assay on MDA-N, above 100 µM; with EKVX NSCLC it was 88.7 µM; with OVCAR-3 ovarian, 90.9 µM; in the assay on KM12 colon, 99.1 µM. Besides, the total growth inhibition concentration (TGI) with MCF7 breast and with NCI-H226 lung was above 100 µM each time.

As to `COC(=O)[C@H](Cc1c[nH]c2ccccc12)NP(=O)(OCCC#N)OCC1OC(n2cc(C)c(=O)[nH]c2=O)CC1N=[N+]=[N-]` (stereo partly drawn), the TGI in the assay on NCI-H522 lung, in the assay with SK-OV-3 ovarian, with MDA-N, with EKVX NSCLC, in the assay on OVCAR-3 ovarian and in the assay on KM12 colon was above 100 µM each time. Besides, the TGI in the assay with MCF7 breast and in the assay with NCI-H226 lung was above 100 µM each time.

On to `CCOC(=O)/C(C(N)=O)=C(\O)C(=O)/C(Br)=C(\O)c1ccccc1`, for which the TGI with NCI-H522 lung is 3.7 µM; in the assay on SK-OV-3 ovarian it was above 57.4 µM; in the assay on MDA-N it was 32.2 µM; in the assay on EKVX NSCLC, 52.8 µM; in the assay with OVCAR-3 ovarian, 41.4 µM; in the assay with KM12 colon it was 35.3 µM. The values for the TGI in the assay with MCF7 breast and in the assay on NCI-H226 lung were 36.9 µM and 51.6 µM, respectively.

In the case of `CCOC(=O)C1CC(C(=O)c2ccccc2)N2c3ccccc3-c3ccccc3C12` (stereo not drawn), the TGI in the assay with NCI-H522 lung, with SK-OV-3 ovarian, with MDA-N, in the assay with EKVX NSCLC, in the assay on OVCAR-3 ovarian and in the assay with KM12 colon was above 100 µM throughout. For the same molecule, the TGI in the assay on MCF7 breast and in the assay with NCI-H226 lung was above 100 µM each time.

Take `Clc1sc(Cl)c2c1[C@@H](Cl)C[C@@H]2Cl`: the TGI with NCI-H522 lung was 58.2 µM; in the assay with SK-OV-3 ovarian, above 100 µM; with MDA-N, above 100 µM; in the assay with EKVX NSCLC it was above 100 µM; in the assay on OVCAR-3 ovarian, above 100 µM; with KM12 colon, above 100 µM. Besides, the total growth inhibition concentration (TGI) in the assay on MCF7 breast and with NCI-H226 lung was above 100 µM each time.

With `NC(Cc1ccc(OCc2ccccc2)cc1)C(=O)NC(Cc1ccccc1)C(=O)Oc1c(Cl)c(Cl)c(Cl)c(Cl)c1Cl` (stereo not drawn), the TGI in the assay with NCI-H522 lung turned out to be 42.3 µM; with SK-OV-3 ovarian it was 28.9 µM; in the assay on MDA-N, 26.8 µM; in the assay with EKVX NSCLC, 41.6 µM; with OVCAR-3 ovarian it was 28.9 µM; in the assay on KM12 colon it was 28.8 µM. Also, the total growth inhibition concentration (TGI) in the assay on MCF7 breast is 36 µM; in the assay with NCI-H226 lung it was 26.5 µM.
